Columns and labels:
Assay type in all cases: biochemical
Conditions in all cases: 100 μg/mL
[1] = ABTS+ free radical scavenging experiment
Protocol: 2. ABTS^+ Free Radical Scavenging Experiment: 2.1 Preparation of PBS buffer solution: weighing 8 g of sodium chloride, 0.2 g of potassium chloride, 0.24 g of monopotassium phosphate, and 3.62 g of disodium hydrogen phosphate dodecahydrate and putting them into a 1000 ml beaker, adding 800 ml of distilled water, stirring to dissolve, and adjusting the pH value to 7.4 by using hydrochloric acid or sodium hydroxide, transferring into a 1000 ml volumetric flask, adding distilled water to dilute, shaking evenly, and standing for later use. […] 2.5 Operation steps: accurately sucking 0.5 ml of test solution and 5 ml of ABTS working solution, and mixing uniformly; accurately sucking 0.5 ml of test solution and 5 ml of PBS buffer solution, and mixing uniformly; accurately sucking 5 ml of ABTS working solution and 0.5 ml of PBS buffer solution, and mixing uniformly, the absorbance was measured immediately at 734 nm, and the free radical removal rate was calculated according to the following formula: IR%=[1−(Ai−Aj)/A0]*100%; in which, Ai represents the absorbance of the mixture of the test solution and ABTS, Aj represents the absorbance of the mixture of the test solution and solvent, and A0 represents the absorbance of the mixture of ABTS and solvent. […]

[2] = DPPH free radical scavenging experiment
Protocol: 1. DPPH Free Radical Scavenging Experiment: 1.1 Preparation of DPPH ethanol solution: precisely weighing 4 mg of […], putting into a 100 ml brown volumetric flask, and adding 50 ml of ethanol, the ultrasonic treatment was carried out for 30 seconds, ethanol was used for fixing the volume to scale, shaking, and the product needs to be freshly prepared when needed. 1.2 Preparation of test solution: precisely weighing 10 mg of walnut oligopeptide powder, and putting into a 50 ml brown volumetric flask, adding 30 ml of ethanol, carrying out ultrasonic treatment for 5 minutes, diluting with ethyl alcohol for fixing the volume to scale, and shaking. […]

[3] = SRSA superoxide anion free radical scavenging experiment
Protocol: 3. SRSA Superoxide Anion Free Radical Scavenging Experiment: 3.1 Preparation of 0.1 moL/L PBS buffer solution (pH 7.4): 80 g of sodium chloride, 2 g of potassium chloride, 2.4 g of monopotassium phosphate and 23.1 g of dipotassium hydrogen phosphate trihydrate were weighted and placed in 1000 ml beaker, adding 600 ml of distilled water, stirring to dissolve, and adjusting the pH to […] with hydrochloric acid or sodium hydroxide, transferring into 1000 ml volumetric flask, adding distilled water to dilute to the scale, shaking evenly, and standing for later use. […] 3.7 Operation steps: accurately sucking 0.5 ml of test solution and 5 ml of the working solution, and uniformly mixing; accurately sucking 0.5 ml of test solution and 5 ml of distilled water, and uniformly mixing; accurately sucking 5 ml of the working solution and 0.5 ml of distilled water, and uniformly mixing, the absorbance was determined immediately at 560 nm, and the free radical scavenging rate was calculated according to the following formula: IR%=[1−(Ai−Aj)/A0]*100%; in which, Ai represents the absorbance of the mixture of the test solution and […], Aj represents the absorbance of the mixture of the test solution and the solvent; and A0 represents the absorbance of the mixture of SRSA and solvent. […]

O=C1O[C@H]([C@@H](O)CO)C(O)=C1O [Vitamin C]
ABTS^+ scavenging rate % [1]: 98.1% | DPPH scavenging rate % [2]: 97.2% | SRSA scavenging rate % [3]: 80.1%
